Source: patent US11780832B2, “Lactivicin compounds, their preparation and use as antibacterial agents” (priority 2021, dated 2023)
Values after ≈ are worked out from the molar mass of the structure shown. Like-named read-outs stand apart in the source and are kept apart here.

Assays:
Test in all cases: MIC, CLSI broth microdilution
Assay type in all cases: cell-based
[1] = tested on: Escherichia coli CTX-M-15; conditions: CTXM15
Method: (§1) Gram-negative and Gram-positive bacterial strains used during the in vitro minimum inhibitory concentration (MIC) determination were obtained either from the American Type Culture Collection (ATCC) or from clinical specimens. All strains were characterized genotypically and the respective antibiotic resistance markers for each strain were identified.
(§2) Isolates were sub-cultured onto appropriate media and stocked in skim milk at −80° C. Following two subcultures from frozen stock, in vitro antimicrobial susceptibility testing was performed using the Clinical and Laboratory Standards Institute (CLSI) broth microdilution method. Briefly, fresh cultures were suspended in culture media to give a final stock inoculum size of 5×10^7 colony forming units per milliliter of broth (CFU/mL). […] 100 μL of the stock solutions were added to the first wells in a 96-well plate and were then diluted using a 2-fold dilution method to give a range of 32-0.025 μg/mL. 100 μL of the bacterial suspensions were then added to the 96-well plates to give a final working inoculum size of 5×10^5 CFU/mL. The final compound concentration range was 16-0.0125 μg/mL. […] MICs for comparator agents were determined using custom-designed, in-house prepared 96-well broth microdilution panels.

[2] = tested on: Klebsiella pneumoniae SHV-12
Method: as §1, §2

[3] = tested on: Escherichia coli Isogenic TEM-10
Method: as §1, §2

[4] = tested on: Acinetobacter baumannii ATCC 19606; conditions: ATCC19606
Method: as §1, §2

[5] = tested on: Pseudomonas aeruginosa AmpC overexpressed
Method: as §1, §2

[6] = tested on: Escherichia coli pSMART_Ecloacae_AmpC
Method: as §1, §2

[7] = tested on: Klebsiella pneumoniae OXA-163, OXA-1_OXA-30, SHV-1, TEM-1
Method: as §1, §2

[8] = tested on: Klebsiella oxytoca KPC-2, TEM-1
Method: as §1, §2

[9] = tested on: Escherichia coli ATCC 25922; conditions: ATCC25922
Method: as §1, §2

[10] = tested on: Klebsiella pneumoniae KPC-2; conditions: KPC2
Method: as §1, §2

[11] = tested on: Pseudomonas aeruginosa OprD negative
Method: as §1, §2

[12] = tested on: Escherichia coli Empty pSMART plasmid
Method: as §1, §2

[13] = tested on: Escherichia coli Isogenic TEM-26
Method: as §1, §2

[14] = tested on: Citrobacter freundii species complex OXA-181
Method: as §1, §2

Escherichia coli SHV-12 = conditions: SHV12
Method: as §1, §2

[15] = tested on: Serratia marcescens AmpC overexpressed
Method: as §1, §2

[16] = tested on: Klebsiella pneumoniae KPC-3
Method: as §1, §2

[17] = tested on: Pseudomonas aeruginosa ATCC 27853; conditions: ATCC27853
Method: as §1, §2

[18] = tested on: Escherichia coli pSMART_Cfreundii_AmpC
Method: as §1, §2

Escherichia coli CMY-2 = conditions: CMY2
Method: as §1, §2

[19] = tested on: Serratia marcescens SME-2; conditions: SME2
Method: as §1, §2

[20] = tested on: Enterobacter cloacae species complex NDM-1
Method: as §1, §2

[21] = tested on: Klebsiella aerogenes VIM-1, SHV-12
Method: as §1, §2

[22] = tested on: Klebsiella pneumoniae OXA-48, SHV-1
Method: as §1, §2

[23] = Citrobacter freundii species complex, OXA-181, read-out: MIC

| SMILES | MIC [1] [µg/mL] | MIC [3] [µg/mL] | MIC [4] [µg/mL] | MIC [5] [µg/mL] | MIC [6] [µg/mL] | MIC [7] [µg/mL] | MIC [9] [µg/mL] | MIC [10] [µg/mL] | MIC [11] [µg/mL] | MIC [12] [µg/mL] | MIC [13] [µg/mL] | MIC (Escherichia coli SHV-12) [µg/mL] | MIC [15] [µg/mL] | MIC [17] [µg/mL] | MIC [18] [µg/mL] | MIC (Escherichia coli CMY-2) [µg/mL] | MIC [19] [µg/mL] | MIC [20] [µg/mL] | MIC [21] [µg/mL] | MIC [22] [µg/mL] | also measured |
| --- | --- | --- | --- | --- | --- | --- | --- | --- | --- | --- | --- | --- | --- | --- | --- | --- | --- | --- | --- | --- | --- |
| Nc1nc(/C(=N/OC2(C(=O)O)CC3CCC(C2)O3)C(=O)N[C@H]2CON(C3(C(=O)O)C[C@H](N4C(=O)c5cc(O)c(O)cc5C4=O)C(=O)O3)C2=O)cs1 (stereo partly drawn) [Cmpd 13, 3-({(Z)-[1-(2-amino-1,3-thiazol-4-yl)-2-({(4S)-2-[(4S)-2-carboxy-4-(5,6-dihydroxy-1,3-dioxo-1,3-dihydro-2H-isoindol-2-yl)-5-oxooxolan-2-yl]-3-oxo-1,2-oxazolidin-4-yl}amino)-2-oxoethylidene]amino}oxy)-8-oxabicyclo[3.2.1]octane-3-carboxylic acid] | 4 (≈ 5.47 µM) | 0.03 (≈ 0.0411 µM) | 0.12 (≈ 0.164 µM) | 1 (≈ 1.37 µM) | 0.06 (≈ 0.0821 µM) | 0.12 (≈ 0.164 µM) | 0.12 (≈ 0.164 µM) | 0.25 (≈ 0.342 µM) | 0.25 (≈ 0.342 µM) | 0.12 (≈ 0.164 µM) | 0.03 (≈ 0.0411 µM) | 2 (≈ 2.74 µM) | 0.12 (≈ 0.164 µM) | 0.25 (≈ 0.342 µM) | 0.06 (≈ 0.0821 µM) | 0.5 (≈ 0.684 µM) | 0.25 (≈ 0.342 µM) | 1 (≈ 1.37 µM) | 0.25 (≈ 0.342 µM) | 0.0149 (≈ 0.0204 µM) | MIC ([2]; SHV12, SHV-12, read-out: MIC): 0.03 µg/mL (≈ 0.0411 µM); MIC ([8]; KPC-2, TEM-1, read-out: MIC): 0.0149 µg/mL (≈ 0.0204 µM); MIC [14, 23]: 0.0149 µg/mL (≈ 0.0204 µM); MIC ([16]; KPC3, KPC-3, read-out: MIC): 0.06 µg/mL (≈ 0.0821 µM) |
| CC(C)(O/N=C(\C(=O)N[C@H]1CON(C2(C(=O)O)C[C@H](N3Cc4cc(O)c(O)cc4C3=O)C(=O)O2)C1=O)c1csc(N)n1)C(=O)O (stereo partly drawn) [Cmpd 35, (4S)-2-[(4S)-4-{[(2Z)-2-(2-amino-1,3-thiazol-4-yl)-2-{[(2-carboxypropan-2-yl)oxy]imino}acetyl]amino}-3-oxo-1,2-oxazolidin-2-yl]-4-(5,6-dihydroxy-1-oxo-1,3-dihydro-2H-isoindol-2-yl)-5-oxooxolane-2-carboxylic acid] | 1 (≈ 1.54 µM) | 0.06 (≈ 0.0925 µM) | 0.25 (≈ 0.385 µM) | 2 (≈ 3.08 µM) | 0.25 (≈ 0.385 µM) | 0.5 (≈ 0.771 µM) | 0.5 (≈ 0.771 µM) | 0.12 (≈ 0.185 µM) | 0.5 (≈ 0.771 µM) | 0.06 (≈ 0.0925 µM) | 0.12 (≈ 0.185 µM) | 1 (≈ 1.54 µM) | 0.5 (≈ 0.771 µM) | 0.5 (≈ 0.771 µM) | 0.5 (≈ 0.771 µM) | 8 (≈ 12.3 µM) | 0.25 (≈ 0.385 µM) | 1 (≈ 1.54 µM) | 1 (≈ 1.54 µM) | 0.03 (≈ 0.0463 µM) | MIC ([2]; SHV12, SHV-12, read-out: MIC): 0.06 µg/mL (≈ 0.0925 µM); MIC ([8]; KPC-2, TEM-1, read-out: MIC): 0.0149 µg/mL (≈ 0.023 µM); MIC [14, 23]: 0.25 µg/mL (≈ 0.385 µM); MIC ([16]; KPC3, KPC-3, read-out: MIC): 0.25 µg/mL (≈ 0.385 µM) |
| CC(C)(O/N=C(\C(=O)N[C@H]1CON(C2(C(=O)O)C[C@@H](N3C(=O)c4cc(O)c(O)cc4C3=O)C(=O)O2)C1=O)c1csc(N)n1)C(=O)O (stereo partly drawn) [Cmpd 40, (4R)-2-[(4S)-4-{[(2Z)-2-(2-amino-1,3-thiazol-4-yl)-2-{[(2-carboxypropan-2-yl)oxy]imino}acetyl]amino}-3-oxo-1,2-oxazolidin-2-yl]-4-(5,6-dihydroxy-1,3-dioxo-1,3-dihydro-2H-isoindol-2-yl)-5-oxooxolane-2-carboxylic acid] | 2 (≈ 3.02 µM) | 0.03 (≈ 0.0453 µM) | 0.12 (≈ 0.181 µM) | 8 (≈ 12.1 µM) | 0.06 (≈ 0.0906 µM) | 0.06 (≈ 0.0906 µM) | 0.06 (≈ 0.0906 µM) | ≤ 0.015 | 0.12 (≈ 0.181 µM) | ≤ 0.015 | ≤ 0.015 | 1 (≈ 1.51 µM) | 0.12 (≈ 0.181 µM) | 0.12 (≈ 0.181 µM) | 0.12 (≈ 0.181 µM) | 2 (≈ 3.02 µM) | 0.06 (≈ 0.0906 µM) | 2 (≈ 3.02 µM) | 0.25 (≈ 0.377 µM) | 0.03 (≈ 0.0453 µM) | MIC ([2]; SHV12, SHV-12, read-out: MIC): ≤ 0.015 µg/mL; MIC ([8]; KPC-2, TEM-1, read-out: MIC): ≤ 0.015 µg/mL; MIC [14, 23]: 0.25 µg/mL (≈ 0.377 µM); MIC ([16]; KPC3, KPC-3, read-out: MIC): 0.03 µg/mL (≈ 0.0453 µM) |
| CC(C)(O/N=C(\C(=O)N[C@H]1CON(C2(C(=O)O)C[C@H](N3C(=O)c4cc(O)c(O)nc4C3=O)C(=O)O2)C1=O)c1csc(N)n1)C(=O)O (stereo partly drawn) [Cmpd 36, (4S)-2-[(4S)-4-{[(2Z)-2-(2-amino-1,3-thiazol-4-yl)-2-{[(2-carboxypropan-2-yl)oxy]imino}acetyl]amino}-3-oxo-1,2-oxazolidin-2-yl]-4-(2,3-dihydroxy-5,7-dioxo-5,7-dihydro-6H-pyrrolo[3,4-b]pyridin-6-yl)-5-oxooxolane-2-carboxylic acid] | 2 (≈ 3.01 µM) | 0.0149 (≈ 0.0225 µM) | 0.12 (≈ 0.181 µM) | 0.5 (≈ 0.754 µM) | 0.03 (≈ 0.0452 µM) | 0.06 (≈ 0.0904 µM) | 0.06 (≈ 0.0904 µM) | 0.12 (≈ 0.181 µM) | 0.12 (≈ 0.181 µM) | 0.06 (≈ 0.0904 µM) | 0.0149 (≈ 0.0225 µM) | 1 (≈ 1.51 µM) | 0.06 (≈ 0.0904 µM) | 0.12 (≈ 0.181 µM) | 0.06 (≈ 0.0904 µM) | 1 (≈ 1.51 µM) | 0.06 (≈ 0.0904 µM) | 0.25 (≈ 0.377 µM) | 2 (≈ 3.01 µM) | 0.0149 (≈ 0.0225 µM) | MIC ([2]; SHV12): 0.0149 µg/mL (≈ 0.0225 µM); MIC [8]: 0.0149 µg/mL (≈ 0.0225 µM); MIC ([14]; Citrobacter freundii): 0.0149 µg/mL (≈ 0.0225 µM); MIC ([16]; KPC3): 0.0149 µg/mL (≈ 0.0225 µM) |
